SMILES strings stand for the structures. pIC50: −log10 of the molar value.
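Note: spheroids exposed to compounds for seven days.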
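Throughout, for viability, T/C: 100% = DMSO vehicle control viability.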

The first assay has as its system 889142-216-R-J1-PDC complex spheroid viability. Put plainly: Anticancer human tumor 889142-216-R-J1-PDC patient-derived bladder carcinoma cell line growth inhibition [POLQ]. The settings on record: curve of first compound; second compound 0.0316 µM. The procedure, abridged:
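Growth inhibition in 3D: complex spheroids (tumor PDC, HUVEC, MSC) treated with POLQ inhibitor combinations; where Cmax unknown, highest tested concentration 10 microM, except SN-38 at 1 microM.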
Regarding `C#Cc1c(F)ccc2cc(O)cc(-c3ncc4c(N5CC6CCC(C5)N6)nc(OCC56CCCN5CC(F)C6)nc4c3F)c12` (configuration not stated) + Cc1cccc(N(C)C(=O)C2C(O)CCN2c2nc(C)cc(C(F)(F)F)c2C#N)c1, the pIC50 was 5.22.
Turning to `C=CC(=O)N1CCN(c2nc(=O)n(-c3c(C)ccnc3C(C)C)c3nc(-c4c(O)cccc4F)c(F)cc23)C(C)C1` (configuration not stated) + Cc1cccc(N(C)C(=O)C2C(O)CCN2c2nc(C)cc(C(F)(F)F)c2C#N)c1, the pIC50 is less than 5.00.
For `CCc1cc2c(N3CCc4c(cc(Cn5ccnc5)cc4-c4cn(C)nc4C(F)(F)F)C3=O)cc(C)nc2c(OC)n1` + Cc1cccc(N(C)C(=O)C2C(O)CCN2c2nc(C)cc(C(F)(F)F)c2C#N)c1, the pIC50 was less than 5.00.
Same read-out and setting: to `COc1cc2cc(C(=O)CCC(=O)O)sc2cc1OC` + Cc1cccc(N(C)C(=O)C2C(O)CCN2c2nc(C)cc(C(F)(F)F)c2C#N)c1 belongs less than 5.00.

The same assay, now with this note: curve of first compound; second compound 0.1 µM.
Consider `C#Cc1c(F)ccc2cc(O)cc(-c3ncc4c(N5CC6CCC(C5)N6)nc(OCC56CCCN5CC(F)C6)nc4c3F)c12` (configuration not stated) + Cc1cccc(N(C)C(=O)C2C(O)CCN2c2nc(C)cc(C(F)(F)F)c2C#N)c1, for which the pIC50 was 5.30.
For the compound `C=CC(=O)N1CCN(c2nc(=O)n(-c3c(C)ccnc3C(C)C)c3nc(-c4c(O)cccc4F)c(F)cc23)C(C)C1` (configuration not stated) + Cc1cccc(N(C)C(=O)C2C(O)CCN2c2nc(C)cc(C(F)(F)F)c2C#N)c1, the pIC50 was less than 5.00.
The same measure, in the same setting: to `CCc1cc2c(N3CCc4c(cc(Cn5ccnc5)cc4-c4cn(C)nc4C(F)(F)F)C3=O)cc(C)nc2c(OC)n1` + Cc1cccc(N(C)C(=O)C2C(O)CCN2c2nc(C)cc(C(F)(F)F)c2C#N)c1 belongs less than 5.00.
As for `COc1cc2cc(C(=O)CCC(=O)O)sc2cc1OC` + Cc1cccc(N(C)C(=O)C2C(O)CCN2c2nc(C)cc(C(F)(F)F)c2C#N)c1, the pIC50 was less than 5.00.

Still in this assay, the particulars now being: curve of first compound; second compound 0.316 µM.
Consider `C#Cc1c(F)ccc2cc(O)cc(-c3ncc4c(N5CC6CCC(C5)N6)nc(OCC56CCCN5CC(F)C6)nc4c3F)c12` (configuration not stated) + Cc1cccc(N(C)C(=O)C2C(O)CCN2c2nc(C)cc(C(F)(F)F)c2C#N)c1, for which the negative logarithm of the IC50 (pIC50) is 5.28.
Turning to `C=CC(=O)N1CCN(c2nc(=O)n(-c3c(C)ccnc3C(C)C)c3nc(-c4c(O)cccc4F)c(F)cc23)C(C)C1` (configuration not stated) + Cc1cccc(N(C)C(=O)C2C(O)CCN2c2nc(C)cc(C(F)(F)F)c2C#N)c1, the pIC50 is less than 5.00.
Regarding `CCc1cc2c(N3CCc4c(cc(Cn5ccnc5)cc4-c4cn(C)nc4C(F)(F)F)C3=O)cc(C)nc2c(OC)n1` + Cc1cccc(N(C)C(=O)C2C(O)CCN2c2nc(C)cc(C(F)(F)F)c2C#N)c1, the pIC50 is less than 5.00.
The same measure, in the same setting: next, `COc1cc2cc(C(=O)CCC(=O)O)sc2cc1OC` + Cc1cccc(N(C)C(=O)C2C(O)CCN2c2nc(C)cc(C(F)(F)F)c2C#N)c1: less than 5.00.

The assay is the same for the next values; noted with them: curve of first compound; second compound 1 µM.
On to `C#Cc1c(F)ccc2cc(O)cc(-c3ncc4c(N5CC6CCC(C5)N6)nc(OCC56CCCN5CC(F)C6)nc4c3F)c12` (configuration not stated) + Cc1cccc(N(C)C(=O)C2C(O)CCN2c2nc(C)cc(C(F)(F)F)c2C#N)c1, for which the negative-log IC50 (pIC50) was 5.11.
The same measure, in the same setting: to `C=CC(=O)N1CCN(c2nc(=O)n(-c3c(C)ccnc3C(C)C)c3nc(-c4c(O)cccc4F)c(F)cc23)C(C)C1` (configuration not stated) + Cc1cccc(N(C)C(=O)C2C(O)CCN2c2nc(C)cc(C(F)(F)F)c2C#N)c1 belongs less than 5.00; to `CCc1cc2c(N3CCc4c(cc(Cn5ccnc5)cc4-c4cn(C)nc4C(F)(F)F)C3=O)cc(C)nc2c(OC)n1` + Cc1cccc(N(C)C(=O)C2C(O)CCN2c2nc(C)cc(C(F)(F)F)c2C#N)c1, less than 5.00.
The same measure, in the same setting: next, `COc1cc2cc(C(=O)CCC(=O)O)sc2cc1OC` + Cc1cccc(N(C)C(=O)C2C(O)CCN2c2nc(C)cc(C(F)(F)F)c2C#N)c1: less than 5.00.

Staying with this assay, now noted: curve of first compound; second compound 3.16 µM.
As for `C#Cc1c(F)ccc2cc(O)cc(-c3ncc4c(N5CC6CCC(C5)N6)nc(OCC56CCCN5CC(F)C6)nc4c3F)c12` (configuration not stated) + Cc1cccc(N(C)C(=O)C2C(O)CCN2c2nc(C)cc(C(F)(F)F)c2C#N)c1, the pIC50 is 5.30.
Same read-out and setting: to `C=CC(=O)N1CCN(c2nc(=O)n(-c3c(C)ccnc3C(C)C)c3nc(-c4c(O)cccc4F)c(F)cc23)C(C)C1` (configuration not stated) + Cc1cccc(N(C)C(=O)C2C(O)CCN2c2nc(C)cc(C(F)(F)F)c2C#N)c1 belongs less than 5.00; to `CCc1cc2c(N3CCc4c(cc(Cn5ccnc5)cc4-c4cn(C)nc4C(F)(F)F)C3=O)cc(C)nc2c(OC)n1` + Cc1cccc(N(C)C(=O)C2C(O)CCN2c2nc(C)cc(C(F)(F)F)c2C#N)c1, less than 5.00.
On the same count and under the same terms, to `COc1cc2cc(C(=O)CCC(=O)O)sc2cc1OC` + Cc1cccc(N(C)C(=O)C2C(O)CCN2c2nc(C)cc(C(F)(F)F)c2C#N)c1 belongs less than 5.00.

Still in this assay, the particulars now being: curve of first compound; second compound 10 µM.
As for `C#Cc1c(F)ccc2cc(O)cc(-c3ncc4c(N5CC6CCC(C5)N6)nc(OCC56CCCN5CC(F)C6)nc4c3F)c12` (configuration not stated) + Cc1cccc(N(C)C(=O)C2C(O)CCN2c2nc(C)cc(C(F)(F)F)c2C#N)c1, the pIC50 is 5.30.
Still for that read-out and setting: next, `C=CC(=O)N1CCN(c2nc(=O)n(-c3c(C)ccnc3C(C)C)c3nc(-c4c(O)cccc4F)c(F)cc23)C(C)C1` (configuration not stated) + Cc1cccc(N(C)C(=O)C2C(O)CCN2c2nc(C)cc(C(F)(F)F)c2C#N)c1: less than 5.00; `CCc1cc2c(N3CCc4c(cc(Cn5ccnc5)cc4-c4cn(C)nc4C(F)(F)F)C3=O)cc(C)nc2c(OC)n1` + Cc1cccc(N(C)C(=O)C2C(O)CCN2c2nc(C)cc(C(F)(F)F)c2C#N)c1: less than 5.00.
The same measure, in the same setting: to `COc1cc2cc(C(=O)CCC(=O)O)sc2cc1OC` + Cc1cccc(N(C)C(=O)C2C(O)CCN2c2nc(C)cc(C(F)(F)F)c2C#N)c1 belongs less than 5.00.

Still in this assay, the particulars now being: second compound 0.0316 µM; first compound 0.0316 µM; stronger effect = lower value.
In the case of `C#Cc1c(F)ccc2cc(O)cc(-c3ncc4c(N5CC6CCC(C5)N6)nc(OCC56CCCN5CC(F)C6)nc4c3F)c12` (configuration not stated) + Cc1cccc(N(C)C(=O)C2C(O)CCN2c2nc(C)cc(C(F)(F)F)c2C#N)c1, the viability, T/C is 106%.
Consider `C=CC(=O)N1CCN(c2nc(=O)n(-c3c(C)ccnc3C(C)C)c3nc(-c4c(O)cccc4F)c(F)cc23)C(C)C1` (configuration not stated) + Cc1cccc(N(C)C(=O)C2C(O)CCN2c2nc(C)cc(C(F)(F)F)c2C#N)c1, for which the viability, T/C was 108%.
On the same count and under the same terms, to `CCc1cc2c(N3CCc4c(cc(Cn5ccnc5)cc4-c4cn(C)nc4C(F)(F)F)C3=O)cc(C)nc2c(OC)n1` + Cc1cccc(N(C)C(=O)C2C(O)CCN2c2nc(C)cc(C(F)(F)F)c2C#N)c1 belongs 109%.
In the case of `COc1cc2cc(C(=O)CCC(=O)O)sc2cc1OC` + Cc1cccc(N(C)C(=O)C2C(O)CCN2c2nc(C)cc(C(F)(F)F)c2C#N)c1, the viability, T/C is 85.5%.

Still in this assay, the particulars now being: second compound 0.0316 µM; first compound 0.1 µM; stronger effect = lower value.
`C#Cc1c(F)ccc2cc(O)cc(-c3ncc4c(N5CC6CCC(C5)N6)nc(OCC56CCCN5CC(F)C6)nc4c3F)c12` (configuration not stated) + Cc1cccc(N(C)C(=O)C2C(O)CCN2c2nc(C)cc(C(F)(F)F)c2C#N)c1: the viability, T/C was 87.8%.
Same read-out and setting: to `C=CC(=O)N1CCN(c2nc(=O)n(-c3c(C)ccnc3C(C)C)c3nc(-c4c(O)cccc4F)c(F)cc23)C(C)C1` (configuration not stated) + Cc1cccc(N(C)C(=O)C2C(O)CCN2c2nc(C)cc(C(F)(F)F)c2C#N)c1 belongs 93.5%; to `CCc1cc2c(N3CCc4c(cc(Cn5ccnc5)cc4-c4cn(C)nc4C(F)(F)F)C3=O)cc(C)nc2c(OC)n1` + Cc1cccc(N(C)C(=O)C2C(O)CCN2c2nc(C)cc(C(F)(F)F)c2C#N)c1, 132%.
For `COc1cc2cc(C(=O)CCC(=O)O)sc2cc1OC` + Cc1cccc(N(C)C(=O)C2C(O)CCN2c2nc(C)cc(C(F)(F)F)c2C#N)c1, the viability, T/C was 127%.

Still in this assay, the particulars now being: second compound 0.0316 µM; first compound 0.316 µM; stronger effect = lower value.
On to `C#Cc1c(F)ccc2cc(O)cc(-c3ncc4c(N5CC6CCC(C5)N6)nc(OCC56CCCN5CC(F)C6)nc4c3F)c12` (configuration not stated) + Cc1cccc(N(C)C(=O)C2C(O)CCN2c2nc(C)cc(C(F)(F)F)c2C#N)c1, for which the viability, T/C was 82.6%.
Same read-out and setting: next, `C=CC(=O)N1CCN(c2nc(=O)n(-c3c(C)ccnc3C(C)C)c3nc(-c4c(O)cccc4F)c(F)cc23)C(C)C1` (configuration not stated) + Cc1cccc(N(C)C(=O)C2C(O)CCN2c2nc(C)cc(C(F)(F)F)c2C#N)c1: 102%; `CCc1cc2c(N3CCc4c(cc(Cn5ccnc5)cc4-c4cn(C)nc4C(F)(F)F)C3=O)cc(C)nc2c(OC)n1` + Cc1cccc(N(C)C(=O)C2C(O)CCN2c2nc(C)cc(C(F)(F)F)c2C#N)c1: 121%; `COc1cc2cc(C(=O)CCC(=O)O)sc2cc1OC` + Cc1cccc(N(C)C(=O)C2C(O)CCN2c2nc(C)cc(C(F)(F)F)c2C#N)c1: 89.6%.

The same assay, now with this note: second compound 0.0316 µM; first compound 1 µM; stronger effect = lower value.
On to `C#Cc1c(F)ccc2cc(O)cc(-c3ncc4c(N5CC6CCC(C5)N6)nc(OCC56CCCN5CC(F)C6)nc4c3F)c12` (configuration not stated) + Cc1cccc(N(C)C(=O)C2C(O)CCN2c2nc(C)cc(C(F)(F)F)c2C#N)c1, for which the viability, T/C was 103%.
Still for that read-out and setting: next, `C=CC(=O)N1CCN(c2nc(=O)n(-c3c(C)ccnc3C(C)C)c3nc(-c4c(O)cccc4F)c(F)cc23)C(C)C1` (configuration not stated) + Cc1cccc(N(C)C(=O)C2C(O)CCN2c2nc(C)cc(C(F)(F)F)c2C#N)c1: 115%.
Turning to `CCc1cc2c(N3CCc4c(cc(Cn5ccnc5)cc4-c4cn(C)nc4C(F)(F)F)C3=O)cc(C)nc2c(OC)n1` + Cc1cccc(N(C)C(=O)C2C(O)CCN2c2nc(C)cc(C(F)(F)F)c2C#N)c1, the viability, T/C was 108%.
The same measure, in the same setting: next, `COc1cc2cc(C(=O)CCC(=O)O)sc2cc1OC` + Cc1cccc(N(C)C(=O)C2C(O)CCN2c2nc(C)cc(C(F)(F)F)c2C#N)c1: 99.1%.

Still in this assay, the particulars now being: second compound 0.0316 µM; first compound 3.16 µM; stronger effect = lower value.
For the compound `C#Cc1c(F)ccc2cc(O)cc(-c3ncc4c(N5CC6CCC(C5)N6)nc(OCC56CCCN5CC(F)C6)nc4c3F)c12` (configuration not stated) + Cc1cccc(N(C)C(=O)C2C(O)CCN2c2nc(C)cc(C(F)(F)F)c2C#N)c1, the viability, T/C is 74.8%.
As for `C=CC(=O)N1CCN(c2nc(=O)n(-c3c(C)ccnc3C(C)C)c3nc(-c4c(O)cccc4F)c(F)cc23)C(C)C1` (configuration not stated) + Cc1cccc(N(C)C(=O)C2C(O)CCN2c2nc(C)cc(C(F)(F)F)c2C#N)c1, the viability, T/C was 122%.

The record behind these values is PubChem BioAssay AID1963831 (Molecular Pharmacology Branch, DTP, NCI, 2024).
